Source: patent publication US20250099485A1, “COMPOSITIONS FOR PROMOTING HAIR GROWTH” (ESTETRA SRL, priority 2021, published 2025)

Legend:
[1] = test system: primary human dermal fibroblasts; test: Fibroblast monolayer scratch assay, human; format: cell-based; settings: 10^−10 M to 10^−6 M, three female donors, compared with E2
Method: Human skin was transferred to the laboratory in holding media (DMEM containing 4% penicillin-streptomycin and Amphotericin B solution) within 30 minutes of collection. Once defatted, the skin was rinsed in HBSS with 4% PSA followed by DPBS without antibiotics, then cut into thin strips and floated on 0.2% Dispase II in DPBS overnight at 4° C., followed by manual separation of the epidermis from the dermis. Primary human epidermal keratinocytes and primary human dermal fibroblasts were then isolated.
Confluent wells of both primary keratinocytes and fibroblasts were subjected to a highly validated scratch wounding procedure (using a 1 mL sterile filter tip). Post-scratching, cells were rinsed with DPBS and cell-specific media containing treatments added to each well. Cells were imaged on a ptychographic live cell imaging platform (Livecyte 2TM, Phasefocus) for 24-48 hours. Automated tracking of individual unlabeled cells will be combined with 3D cell measurements to quantify a range of wound-relevant cell parameters including scratch closure rate.
Dose range finding experiments were conducted with E4 (10^−10M to 10^−6M) and E2 with and without Mitomycin C (MMC, to inhibit proliferation) using vehicle as negative controls. […]

[2] = test system: human epidermal keratinocytes; test: Wound healing gene expression RT-qPCR array, keratinocytes; format: cell-based; settings: 10^−7M, 15 h, relative to ethanol control
Description: The healing properties of E4 were investigated at the transcriptional level by studying gene expression changes by RT-qPCR. 84 genes qPCR arrays focusing on the wound healing process were used. These arrays contain genes important for the three phases of wound healing process, including extra-cellular matrix (ECM) remodeling factors, inflammatory cytokines and chemokines as well as growth factors and major signaling molecules. The changes in gene expression were interpreted in a dermo cosmetic context in order to highlight the potential benefits of the E4 towards wound healing.
After 24 h seeded on 25 cm^2 culture flasks (T25), cells were treated with E4 during 15 h. […]
The RNA concentration was determined by spectrophotometric measurement (QIAxpert, Qiagen) and the RNA quality was analyzed by capillarity electrophoresis (Agilent Bioanalyzer 2100—Agilent RNA 6000 Nano Kit). […]
The qPCR method was used to quantify the expression changes of specific markers in the cDNA populations. […]
The amplification of target genes was performed following the supplier's recommendations thanks to a “HotStart Taq DNA Polymerase” and to the use of SYBR Green as detection method. The SYBR Green is a marker emitting fluorescence once inserted between the paired bases of nucleic acids. The fluorescence intensity is thus directly proportional to the quantity of produced amplicons. […]

[3] = test system: versican in dermal papilla (DP); test: Hair follicle organ culture: versican expression, DP inductivity; format: cell-based, human; settings: all tested concentrations, vs vehicle
Method: 12-44 full-length frontotemporal hair follicles (HF) were obtained from four human female donors >50 years old. Donors were caucasian female subjects […], respectively (Donor 1: 12 temporal anagen HFs; Donor 2: 29; Donor 3: 44; Donor 4: 32). After microdissection from skin as described (Edelkamp et al., Methods Mol Biol, 2020, 2154:105-119; and Langan et al., Exp Dermatol, 2015, December; 24(12):903-1), HFs were placed in adequate culture medium and allowed a 24 h rest period to allow them to recover from the trauma of microdissection. Test substance (either vehicle (0.3% EtOH) or E4 at concentrations of 30 μM, 3 μM or 300 nM) was added to the medium at the end of the 24 h. Total culturing time was 5-7 days depending on the studied parameters and the experimental question. The experimental design for the hair follicle organ culture experiment is depicted in FIG. 12. Longer term culture experiments may be used to analyze the capacity to delay the onset of catagen.
Versican, a large chondroitin sulfate proteoglycan molecule, is expressed in DP in anagen HFs and diminishes in catagen HFs and its expression correlates with hair inductive properties (Yang, J Dermatol Sci 2010). Versican intensity was analyzed in the DP.

## C[C@]12CC[C@@H]3c4ccc(O)cc4CC[C@H]3[C@@H]1[C@@H](O)[C@@H](O)[C@@H]2O [E4, 1,3,5 (10)-estratrien-3,15alpha,16alpha,17beta-tetrol]
[1]
  in vitro wound closure, human fibroblasts scratch assay: promotes in vitro wound closure to a similar extent as E2
[2]
  MMP2 (Matrix metalloproteinase-2) expression, FC: 1.1434 Fold Change (FC)
  TIMP1 (Metalloproteinase inhibitor 1) expression, FC: 0.8949 Fold Change (FC)
[3]
  versican expression in DP cells: tendentially increased
